Patent publication US20230278972A1, “SUBSTITUTED HALOALKYL SULFONANILIDE HERBICIDES” (FMC Corporation, priority 2020, published 2023)

Tests used:
Type in all cases: in vivo
[1] = system: barnyardgrass (Echinochloa crus-galli); assay: Test A preemergence, barnyardgrass; settings: Preemergence; for Plant response rating, Barnyardgrass: 0 to 100 scale (0 no effect, 100 complete control); for Barnyardgrass plant response rating: visual injury on 0 to 100 scale (0 no effect, 100 complete control), approximately 10 days
Procedure, shortened: (§1)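 Whole-plant herbicidal screen in pots of loam blended with sand. Sprays used a surfactant-containing, non-phytotoxic solvent vehicle. Timing was preemergence soil-directed at planting or postemergence at the one- to two-leaf stage (2–10 cm).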

kochia (Bassia scoparia) [2] = assay: Test A preemergence, kochia; settings: Preemergence; for Plant response rating, Kochia: 0 to 100 scale (0 no effect, 100 complete control); for Kochia plant response rating: visual injury on 0 to 100 scale (0 no effect, 100 complete control), approximately 10 days
Procedure, shortened: as §1

[3] = system: ragweed (common ragweed, Ambrosia artemisiifolia); assay: Test A preemergence, ragweed; settings: Preemergence; for Plant response rating, Ragweed: 0 to 100 scale (0 no effect, 100 complete control); for Ragweed plant response rating: visual injury on 0 to 100 scale (0 no effect, 100 complete control), approximately 10 days
Procedure, shortened: as §1

[4] = system: Ryegrass, Italian (Italian ryegrass, Lolium multiflorum); assay: Test A preemergence, Ryegrass, Italian; settings: Preemergence; for Plant response rating, Ryegrass, Italian: 0 to 100 scale (0 no effect, 100 complete control); for Ryegrass, Italian plant response rating: visual injury on 0 to 100 scale (0 no effect, 100 complete control), approximately 10 days
Procedure, shortened: as §1

[5] = system: Foxtail, Giant (giant foxtail, Setaria faberi); assay: Test A preemergence, Foxtail, Giant; settings: Preemergence; for Plant response rating, Foxtail, Giant: 0 to 100 scale (0 no effect, 100 complete control); for Foxtail, Giant plant response rating: visual injury on 0 to 100 scale (0 no effect, 100 complete control), approximately 10 days
Procedure, shortened: as §1

[6] = system: pigweed (Amaranthus retroflexus); assay: Test A preemergence, pigweed; settings: for Plant response rating, Pigweed: 0 to 100 scale (0 no effect, 100 complete control); for Pigweed plant response rating: visual injury on 0 to 100 scale (0 no effect, 100 complete control), approximately 10 days
Procedure, shortened: (§2)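 Greenhouse pot test in a loam–sand blend; compounds delivered in a non-phytotoxic solvent carrying a surfactant, applied either as a directed spray to soil at seeding or over seedlings 2 to 10 cm high with one to two leaves.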

[7] = system: barnyardgrass (Echinochloa crus-galli); assay: Test A postemergence, barnyardgrass; settings: Postemergence; for Barnyardgrass plant response rating: visual injury vs untreated controls after approx. 10 days
Procedure, shortened: as §2

kochia (Bassia scoparia) [8] = assay: Test A postemergence, kochia; settings: Postemergence; for Kochia plant response rating: visual injury vs untreated controls after approx. 10 days
Procedure, shortened: as §1

[9] = system: ragweed (common ragweed, Ambrosia artemisiifolia); assay: Test A postemergence, ragweed; settings: Postemergence; for Ragweed plant response rating: visual injury vs untreated controls after approx. 10 days
Procedure, shortened: as §1

[10] = system: Ryegrass, Italian (Italian ryegrass, Lolium multiflorum); assay: Test A postemergence, Ryegrass, Italian; settings: Postemergence; for Ryegrass, Italian plant response rating: visual injury vs untreated controls after approx. 10 days
Procedure, shortened: as §1

[11] = system: Foxtail, Giant (giant foxtail, Setaria faberi); assay: Test A postemergence, Foxtail, Giant; settings: Postemergence; for Foxtail, Giant plant response rating: visual injury vs untreated controls after approx. 10 days
Procedure, shortened: as §1

[12] = system: pigweed (Amaranthus retroflexus); assay: Test A postemergence, pigweed; settings: Postemergence; for Pigweed plant response rating: visual injury vs untreated controls after approx. 10 days
Procedure, shortened: as §1

[13] = system: wheat (Triticum aestivum); assay: Test A postemergence, wheat; settings: Postemergence; for Wheat plant response rating: visual injury vs untreated controls after approx. 10 days
Procedure, shortened: as §2

corn (Zea mays) = assay: Test A postemergence, corn; settings: Postemergence; for Corn plant response rating: visual injury vs untreated controls after approx. 10 days
Procedure, shortened: as §1

[14] = system: blackgrass (Alopecurus myosuroides); assay: Test A postemergence, blackgrass; settings: Postemergence; for Blackgrass plant response rating: visual injury vs untreated controls after approx. 10 days
Procedure, shortened: as §1

[15] = system: galium (catchweed bedstraw, Galium aparine); assay: Test A postemergence, galium; settings: Postemergence; for Galium plant response rating: visual injury vs untreated controls after approx. 10 days
Procedure, shortened: as §2

[16] = 125 g ai/ha, visual injury, approx. 10 days
[17] = 125 g ai/ha, 0 to 100 scale (0 no effect, 100 complete control)
[18] = 500 g ai/ha, 0 to 100 scale (0 no effect, 100 complete control)
[19] = 31 g ai/ha, visual injury, approx. 10 days
[20] = 31 g ai/ha, visual injury on 0 to 100 scale (0 no effect, 100 complete control), approx. 10 days
[21] = 500 g ai/ha, visual injury approx. 10 days, 0 to 100 scale (0 no effect, 100 complete control)

## Cc1cc(C)c(N(S(=O)(=O)C(F)(F)F)S(=O)(=O)C(F)(F)F)cc1C(=O)N1CCC(F)(F)CC1 [Compound 210]
[1]; [16]
  Plant response rating, Barnyardgrass: 90
[1]; 500 g ai/ha
  Plant response rating, Barnyardgrass: 100
Kochia (Bassia scoparia) [2]; [16]
  Plant response rating, Kochia: 30
Kochia (Bassia scoparia) [2]; 500 g ai/ha
  Plant response rating, Kochia: 90
[3]; [16]
  Plant response rating, Ragweed: 80
[3]; 500 g ai/ha
  Plant response rating, Ragweed: 90
[4]; [16]
  Plant response rating, Ryegrass, Italian: 50
[4]; 500 g ai/ha
  Plant response rating, Ryegrass, Italian: 100
[5]; [16]
  Plant response rating, Foxtail, Giant: 90
[5]; 500 g ai/ha
  Plant response rating, Foxtail, Giant: 100
[6]; [16]
  Plant response rating, Pigweed: 100
[6]; 500 g ai/ha
  Plant response rating, Pigweed: 100
[7]; [17]
  Plant response rating, Barnyardgrass: 20
[7]; [18]
  Barnyardgrass plant response rating: 90
Kochia (Bassia scoparia) [8]; [17]
  Plant response rating, Kochia: 50
Kochia (Bassia scoparia) [8]; [18]
  Kochia plant response rating: 90
[9]; [17]
  Plant response rating, Ragweed: 80
[9]; [18]
  Ragweed plant response rating: 90
[10]; [17]
  Plant response rating, Ryegrass, Italian: 20
[10]; [18]
  Ryegrass, Italian plant response rating: 40
[11]; [17]
  Plant response rating, Foxtail, Giant: 0
[11]; [18]
  Foxtail, Giant plant response rating: 30
[12]; [17]
  Plant response rating, Pigweed: 60
[12]; [18]
  Pigweed plant response rating: 100
[13]; [17]
  Plant response rating, Wheat: 0
[13]; [18]
  Wheat plant response rating: 60
Corn (Zea mays); [17]
  Plant response rating, Corn: 10
Corn (Zea mays); [18]
  Corn plant response rating: 40
[14]; [17]
  Plant response rating, Blackgrass: 0
[14]; [18]
  Blackgrass plant response rating: 0
[15]; [17]
  Plant response rating, Galium: 80
[15]; [18]
  Galium plant response rating: 90

## Cc1cc(C)c(N(S(=O)(=O)C(F)(F)F)S(=O)(=O)C(F)(F)F)cc1N1CC2(CCOCC2)OC1=O [Compound 157]
[1]; [19]
  Plant response rating, Barnyardgrass: 30
[1]; 125 g ai/ha
  Barnyardgrass plant response rating: 100
Kochia (Bassia scoparia) [2]; [19]
  Plant response rating, Kochia: 50
Kochia (Bassia scoparia) [2]; 125 g ai/ha
  Kochia plant response rating: 90
[3]; [19]
  Plant response rating, Ragweed: 40
[3]; 125 g ai/ha
  Ragweed plant response rating: 90
[4]; [19]
  Plant response rating, Ryegrass, Italian: 40
[4]; 125 g ai/ha
  Ryegrass, Italian plant response rating: 60
[5]; [19]
  Plant response rating, Foxtail, Giant: 80
[5]; 125 g ai/ha
  Foxtail, Giant plant response rating: 100
[6]; [19]
  Plant response rating, Pigweed: 100
[6]; 125 g ai/ha
  Pigweed plant response rating: 100
[7]; [20]
  Plant response rating, Barnyardgrass: 20
[7]; [17]
  Plant response rating, Barnyardgrass: 60
Kochia (Bassia scoparia) [8]; [20]
  Plant response rating, Kochia: 10
Kochia (Bassia scoparia) [8]; [17]
  Plant response rating, Kochia: 70
[9]; [20]
  Plant response rating, Ragweed: 70
[9]; [17]
  Plant response rating, Ragweed: 90
[10]; [20]
  Plant response rating, Ryegrass, Italian: 0
[10]; [17]
  Plant response rating, Ryegrass, Italian: 30
[11]; [20]
  Plant response rating, Foxtail, Giant: 10
[11]; [17]
  Plant response rating, Foxtail, Giant: 30
[12]; [20]
  Plant response rating, Pigweed: 90
[12]; [17]
  Plant response rating, Pigweed: 100
[13]; [20]
  Plant response rating, Wheat: 0
[13]; [17]
  Plant response rating, Wheat: 0
Corn (Zea mays); [20]
  Plant response rating, Corn: 20
Corn (Zea mays); [17]
  Plant response rating, Corn: 20
[14]; [20]
  Plant response rating, Blackgrass: 30
[14]; [17]
  Plant response rating, Blackgrass: 30
[15]; [20]
  Plant response rating, Galium: 90
[15]; [17]
  Plant response rating, Galium: 100

## Cc1cc(C)c(N2CC3(CCCCC3)OC2=O)cc1NS(=O)(=O)C(F)(F)F [Compound 279]
[1]; [16]
  Plant response rating, Barnyardgrass: 100
[1]; 500 g ai/ha
  Barnyardgrass plant response rating: 100
Kochia (Bassia scoparia) [2]; [16]
  Plant response rating, Kochia: 80
Kochia (Bassia scoparia) [2]; 500 g ai/ha
  Kochia plant response rating: 90
[3]; [16]
  Plant response rating, Ragweed: 100
[3]; 500 g ai/ha
  Ragweed plant response rating: 100
[4]; [16]
  Plant response rating, Ryegrass, Italian: 90
[4]; 500 g ai/ha
  Ryegrass, Italian plant response rating: 100
[5]; [16]
  Plant response rating, Foxtail, Giant: 100
[5]; 500 g ai/ha
  Foxtail, Giant plant response rating: 100
[6]; [16]
  Plant response rating, Pigweed: 90
[6]; 500 g ai/ha
  Pigweed plant response rating: 100
[7]; [17]
  Plant response rating, Barnyardgrass: 20
[7]; [21]
  Plant response rating, Barnyardgrass: 80
Kochia (Bassia scoparia) [8]; [17]
  Plant response rating, Kochia: 40
Kochia (Bassia scoparia) [8]; [21]
  Plant response rating, Kochia: 50
[9]; [17]
  Plant response rating, Ragweed: 80
[9]; [21]
  Plant response rating, Ragweed: 90
[10]; [17]
  Plant response rating, Ryegrass, Italian: 0
[10]; [21]
  Plant response rating, Ryegrass, Italian: 60
[11]; [17]
  Plant response rating, Foxtail, Giant: 10
[11]; [21]
  Plant response rating, Foxtail, Giant: 30
[12]; [17]
  Plant response rating, Pigweed: 50
[12]; [21]
  Plant response rating, Pigweed: 80
[13]; [17]
  Plant response rating, Wheat: 0
[13]; [21]
  Plant response rating, Wheat: 70
Corn (Zea mays); [17]
  Plant response rating, Corn: 20
Corn (Zea mays); [21]
  Plant response rating, Corn: 20
[14]; [17]
  Plant response rating, Blackgrass: 0
[14]; [21]
  Plant response rating, Blackgrass: 20
[15]; [17]
  Plant response rating, Galium: 90
[15]; [21]
  Plant response rating, Galium: 90

## Cc1cc(Cl)c(NS(=O)(=O)C(F)(F)F)cc1C1=NOC(C)(C)C1 [Compound 203]
[1]; [16]
  Plant response rating, Barnyardgrass: 90
[1]; 500 g ai/ha
  Plant response rating, Barnyardgrass: 90
Kochia (Bassia scoparia) [2]; [16]
  Plant response rating, Kochia: 60
Kochia (Bassia scoparia) [2]; 500 g ai/ha
  Plant response rating, Kochia: 90
[3]; [16]
  Plant response rating, Ragweed: 80
[3]; 500 g ai/ha
  Plant response rating, Ragweed: 90
[4]; [16]
  Plant response rating, Ryegrass, Italian: 50
[4]; 500 g ai/ha
  Plant response rating, Ryegrass, Italian: 100
[5]; [16]
  Plant response rating, Foxtail, Giant: 30
[5]; 500 g ai/ha
  Plant response rating, Foxtail, Giant: 100
[6]; [16]
  Plant response rating, Pigweed: 60
[6]; 500 g ai/ha
  Plant response rating, Pigweed: 100
[7]; [17]
  Plant response rating, Barnyardgrass: 60
[7]; [18]
  Barnyardgrass plant response rating: 80
Kochia (Bassia scoparia) [8]; [17]
  Plant response rating, Kochia: 40
Kochia (Bassia scoparia) [8]; [18]
  Kochia plant response rating: 80
[9]; [17]
  Plant response rating, Ragweed: 70
[9]; [18]
  Ragweed plant response rating: 90
[10]; [17]
  Plant response rating, Ryegrass, Italian: 0
[10]; [18]
  Ryegrass, Italian plant response rating: 60
[11]; [17]
  Plant response rating, Foxtail, Giant: 0
[11]; [18]
  Foxtail, Giant plant response rating: 50
[12]; [17]
  Plant response rating, Pigweed: 20
[12]; [18]
  Pigweed plant response rating: 60
[13]; [17]
  Plant response rating, Wheat: 40
[13]; [18]
  Wheat plant response rating: 70
Corn (Zea mays); [17]
  Plant response rating, Corn: 10
Corn (Zea mays); [18]
  Corn plant response rating: 60
[14]; [17]
  Plant response rating, Blackgrass: 20
[14]; [18]
  Blackgrass plant response rating: 30
[15]; [17]
  Plant response rating, Galium: 80
[15]; [18]
  Galium plant response rating: 90
